Legend:
Assay type in all cases: cell-based
[1] = test system: human pulmonary microvascular endothelial cells (HMVECs); assay: Cell culture model of warm lung IRI: simulated warm ischemia and reperfusion, phalloidin staining and image analysis; conditions: 1 μg/mL CRX-526 vs vehicle
Procedure: An in vitro normothermic (37° C.) model of IRI employing nutrient depletion in 100% oxygen to model ischemia was developed, with reperfusion modeled by supplying fresh medium to culture dishes in sealed PLEXIGLAS® containers. Human pulmonary microvascular endothelial cells (HMVECs) (Cambrex Bio Science, Walkersville, Md., United States of America) maintained in CLONETICS® EGM-2MV BULLETKITS® (Cambrex Bio Science, Walkersville, Md., United States of America), at 37° C. in a humidified incubator in 5% CO2 were seeded at 2000 cells/cm^2 on collagen-coated 30 mm diameter glass bottom dish coverslips (Mattek Corp., Ashland, Mass., United States of America) and grown until 100% confluent. Sealed PLEXIGLAS® containers housing culture dishes at 37° C. were ventilated with 95% O2/5% CO2. To model warm ischemia (WI), cell medium was suddenly replaced with 2 mL nutrient-depleted, pyrogen-free clinical grade Ringer's lactate. Dishes were pre-treated with 1 μg/mL CRX-526 (GlaxoSmithKline, Duluth, Minn., United States of America) or vehicle (2% glycerin), one hour before WI. CRX-526 or vehicle was added whenever medium was changed. After 1 hour of simulated WI, Ringer's lactate was replaced with EGM2-MV pyrogen-free medium to simulate reperfusion, ventilating the chamber with 5% CO2 in room air. Dishes were removed in triplicate during WI and reperfusion, and immediately fixed in 4% paraformaldehyde for phalloidin staining. Cells with inhibitor or vehicle maintained in EGM2-MV medium at 37° C. in humidified 5% CO2 incubator served as controls. Culture medium was changed at the same time that medium was changed in experimental dishes. Probes inserted through sealed ports continuously recorded temperature, and pH in a representative dish in the PLEXIGLAS® box using voltmeters with data output recorded by PicoRecorded software (Pico Technology, St. Neots, United Kingdom).
HMVECs were fixed in 4% paraformaldehyde for 10 minutes at room temperature and washed 3 times with PBS. Cells were incubated for 1 hour with a 1/100 dilution of ALEXAFLOR® 568 phalloidin (Invitrogen, Carlsbad, Calif., United States of America) in PBS with 1% BSA and 0.05% Tween-20. Coverslips stained for F-actin were immediately examined with a Leica DMIRB Inverted Fluorescence/DIC microscope (Leica Microsystems, Inc., Bannockburn, Ill., United States of America) at 20× and 40× magnification to evaluate changes in cell shape and F-actin cytoskeleton. For each dish, three pictures were taken of contiguous fields near the center of the dish at 40× with a Kodak (Rochester, N.Y., United States of America) digital camera at the same exposure time. A masked observer assessed actin stress fiber pattern of each cell as normal or abnormal. Quantitative analysis of gap area was performed using METAMORPH® software (MDS Analytical Technologies, Inc., Sunnyvale, Calif., United States of America).
As described in Example 1, HMVECs grown to confluence on P30 dishes with integral cover slips were incubated with 1 μg/mL CRX-526 or vehicle, ventilated with 95% O2/5% CO2. Media was replaced with warm (37° C.)
Ringer's lactate and ventilated with 100% O2 to simulate warm ischemia. One hour later, Ringer's lactate was replaced with warm cell culture media, and chambers were ventilated with 95% room air/5% CO2 to simulate reperfusion. […]

[2] = test system: human pulmonary microvascular endothelial cells (HMVECs); assay: Simulated cold IRI: cold ischemia in 4° C. PERFADEX, gaps in monolayer; conditions: CRX-526 pre-incubation; 4 hours of cold ischemia in 4° C. PERFADEX; FIG. 2A, 2B
Procedure: FIG. 2A is a series of photographs of (from left to right) human pulmonary microvascular endothelial cells (HMVECs) in warm (37° C.) cell culture media (Control), of HMVECs after four hours of cold ischemia (CI) in 4° C. cell culture media (Media 4 hr CI), of HMVECs after four hours of cold ischemia in 4° C. PERFADEX™ (Vitrolife, Kungsbacka, Sweden) pulmonary preservation solution (Vehicle 4 hr CI), and of HMVECs that had been pre-incubated with CRX-526 and undergone four hours of cold ischemia in 4° C. PERFADEX™ (Vitrolife, Kungsbacka, Sweden) with CRX-526 (CRX-526 4 hr CI). The photographs are representative of 9 images taken for each set of conditions.
FIG. 2B is a graph of the % area of gaps in the monolayer of human pulmonary microvascular endothelial cells (HMVECs) in cell culture media (Media), vehicle (i.e., PERFADEX™ (Vitrolife, Kungsbacka, Sweden)) or in vehicle after a 1 hour pre-treatment with CRX-526 and following either four hours of cold ischemia (4 hr CI), 1 hour of warm ischemia (WI), or following 1 hour of warm ischemia and 15 min, 1 hr, or 4 hr of reperfusion (15 min rep, 1 hr rep, and 4 hr rep, respectively). Data for the HMVECs in cell culture media without vehicle is shown in the open bars. […] The % gap area was quantified by MetaMorph® software (MDS Analytical Technologies, Inc., Sunnyvale, Calif., United States of America). *=p<0.01. […]

[3] = test system: human pulmonary microvascular endothelial cells (HMVECs); assay: Determination of viability for cell culture experiments (LDH activity, CytoTox96 assay) during simulated IRI; conditions: controls vs treated groups, all time points of simulated IRI
Procedure: In separate experiments performed in triplicate, HMVECs grown to confluence on P35 dishes underwent simulated IRI. At the same time points, cells and cell culture media or Ringer's lactate were assessed for lactate dehydrogenase (LDH) activity using the CytoTox96 Non-Radioactive Cytotoxicity Assay (Promega, Madison, Wis., United States of America) following the manufacturer's instructions. Control samples were also taken at time zero and 24 hours to assess cell viability apart from the experimental model. Culture medium and Ringer's lactate were used as background controls to normalize the absorbance value from the other samples. Cytotoxicity was calculated as media LDH activity divided by total LDH activity (cell pellet plus media). Viability was the inverse and expressed as percent viability at each time point.

With `CCCCCCCCCCC[C@H](CC(=O)N[C@H]1[C@H](OC[C@H](NC(=O)C[C@@H](CCCCCCCCCCC)OC(=O)CCCCC)C(=O)O)O[C@H](CO)[C@@H](OP(=O)(O)O)[C@@H]1OC(=O)C[C@@H](CCCCCCCCCCC)OC(=O)CCCCC)OC(=O)CCCCC` [CRX-526] the “peripheral orientation of actin” value ([1]; after 15 minutes simulated reperfusion, FIG. 1C) was “significantly reduced”, the “recovery of monolayer confluence” value ([1]; after simulated reperfusion, FIG. 1B) was “regained confluence more quickly” and the “area of monolayer gaps” value ([1]; during simulated warm ischemia, FIG. 1B) was “significantly reduced”. For the same compound, the “peripheral orientation of actin” value ([1]; following 60 minutes of WI, FIG. 1C) was “significantly reduced”, the “percentage of cells with altered actin cytoskeleton” value ([1]; monolayers in simulated warm IRI, FIG. 1C) was “decreased” and the gaps in monolayer [2] was “much less obvious”. For the same compound, the “cell viability, quantified by LDH assay” value [3] was “equivalent”.
